The numbers were not newly measured in patent publication US6900317B2, “Salts of the CGRP antagonist BIBN4096 and inhalable powdered medicaments containing them” (Boehringer Ingelheim Pharma GmbH & Co. KG, priority 2002, dated 2005), which cites them from elsewhere.

The conditions of the data set: conventional preparations.

In the case of `NCCCC[C@H](NC(=O)[C@@H](Cc1cc(Br)c(O)c(Br)c1)NC(=O)N1CCC(N2Cc3ccccc3NC2=O)CC1)C(=O)N1CCN(c2ccncc2)CC1` [BIBN4096, 1-[N^2-[3,5-dibromo-N-[[4-(3,4-dihydro-2(1H)-oxoquinazolin-3-yl)-1-piperidinyl]carbonyl]-D-tyrosyl]-L-lysyl]-4-(4-pyridinyl)-piperazine], the “bioavailability by oral route” value is “only limited bioavailability”.
